The source of these data is BindingDB's records for patent US12473263 (Icahn School Of Medicine At Mount Sinai, 2025).

In this assay the target is T1, Bromodomain-containing protein 4 [58-164] (Homo sapiens, UniProt O60885).
T1 construct: 58-164
In words: Fluorescence Anisotropy Binding Assay. How it is done:
Binding affinity of the newly synthesized compounds to the BRD4 BrD1 was assessed in a fluorescence anisotropy assay using a fluorescein isothiocyanate (FITC)-labeled MS417 as an assay probe (Zhang et al. 2008 op.cit.). Competition binding was performed with a BrD protein (0.25 to 1 μM) and the fluorescent probe (80 nM), and increasing concentration of unlabeled competing ligand in a PBS buffer (pH 7.4) in total volume of 80 μL. Measurements were obtained after 1 hour incubation of the fluorescent ligand and the protein at 25° C. with Safire 2 microplate reader (Tecan). In the assay, fluorescent ligand concentration was ≤2Kd, and protein concentration was set at which 50-80% of fluorescent ligand is bound. Dissociation constant of a competing ligand was calculated with the correction to Cheng-Prussoff equation introduced by Nicolovska-Coleska and colleagues [Nikolovska-Coleska, Z. et al., Anal Biochem 332, 261-273 (2004).
Usually Kd stands for the free concentration of one partner at which half of the binding sites on the other are occupied at equilibrium, for simple one-to-one binding. The low end stands for a tighter complex, the high end for a looser complex. `COc1ccc2c(c1)n(Cc1ccccc1C)c(=N)n2CC(O)c1ccc(Cl)c(Cl)c1` (stereo unspecified) [US12473263, Example 1] showed a Kd of 694 nM. Then `Cc1ccccc1Cn1c(=N)n(CC(O)c2ccc(Cl)c(Cl)c2)c2ccc(F)cc21` (stereo unspecified) [US12473263, Example 2], with 269 nM.

`Cc1ccccc1Cn1c(=N)n(CC(O)c2ccc(Cl)c(Cl)c2)c2ccc(Cl)cc21` (stereo unspecified) [US12473263, Example 3] displayed a Kd of 503 nM. Then `Cc1ccccc1Cc1cn(C[C@H](O)c2ccc(Cl)c(Cl)c2)c2ccccc12` [US12473263, Example 4], with 640 nM; and `Cc1ccccc1Cn1cc(Cn2c(=N)n(CC(O)c3ccc(Cl)c(Cl)c3)c3ccccc32)nn1` (stereo unspecified) [US12473263, Example 7], with 551 nM. Then `Cc1cccc(Cn2cc(Cn3c(=N)n(CC(O)c4ccc(Cl)c(Cl)c4)c4ccccc43)nn2)c1` (stereo unspecified) [US12473263, Example 8], with 556 nM. For `N=c1n(Cc2cn(Cc3ccccc3F)nn2)c2ccccc2n1CC(O)c1ccc(Cl)c(Cl)c1` (stereo unspecified) [US12473263, Example 10] the value was 371 nM. For the compound `N=c1n(Cc2cn(Cc3cccc(F)c3)nn2)c2ccccc2n1CC(O)c1ccc(Cl)c(Cl)c1` (stereo unspecified) [US12473263, Example 11], the Kd came out at 548 nM. On to `N=c1n(Cc2cn(Cc3ccc(F)cc3)nn2)c2ccccc2n1CC(O)c1ccc(Cl)c(Cl)c1` (stereo unspecified) [US12473263, Example 12], for which binding was put at a Kd of 3860 nM. Then `N=c1n(Cc2cn(-c3ccccc3)nn2)c2ccccc2n1CC(O)c1ccc(Cl)c(Cl)c1` (stereo unspecified) [US12473263, Example 13], with 65 nM.

As to `N=c1n(Cc2cn(CCc3ccccc3)nn2)c2ccccc2n1CC(O)c1ccc(Cl)c(Cl)c1` (stereo unspecified) [US12473263, Example 15], the Kd is 354 nM.
